Results published in ChEMBL document CHEMBL4732150 (J Med Chem, 2021).

Legend:
[1] = Intrinsic clearance in cynomolgus monkey liver microsomes preincubated for 10 mins under shaking condition followed by NADPH generating system addition and measured up to 60 mins by LC-MS/MS analysis; type: ADME, Macaca fascicularis, Microsome; settings: 1 h, time <=70 min
[2] = Drug metabolism in cynomolgus monkey liver microsomes assessed as 3,3-dideuterio-N-[2-(2-dimethylaminoethylamino)-4-methoxy-5-[[4-[1-(trideuteriomethyl)indol-3-yl]pyrimidin-2-yl]amino]phenyl]prop-2-enamide metabolite formation preincubated for 10 mins under shaking condition followed by NADPH generating system addition and measured up to 60 mins by LC-MS/MS analysis; type: ADME, Macaca fascicularis, Microsome; settings: 1 h, time <=70 min
[3] = Oral bioavailability in Sprague-Dawley rat at 12 mg/kg, IG administered as single dose and measured upto 24 hrs by LC-MS/MS analysis; type: ADME, organism-based; settings: in vivo
[4] = Tmax in Sprague-Dawley rat at 6 mg/kg/day, IG administered for 7 consecutive days by LC-MS/MS analysis; type: ADME, organism-based; settings: in vivo, po, time 7 day
[5] = Cmax in Sprague-Dawley rat assessed as AZ5104-D2 at 6 mg/kg/day, IG administered for 7 consecutive days by LC-MS/MS analysis; type: ADME, organism-based; parameters: route […], dose 6 mg/kg/day, time 7 day; settings: in vivo, po, 168 h
in vivo [6] = settings: Sprague-Dawley, rat, po, 12 mg/kg
[7] = Intrinsic clearance in human liver microsomes preincubated for 10 mins under shaking condition followed by NADPH generating system addition and measured up to 60 mins by LC-MS/MS analysis; type: ADME, Microsome; settings: 1 h, time <=70 min
in vivo [8] = settings: Sprague-Dawley, rat, po, 12 mg/kg; remark: listed apart in the source
Cytochrome P450 2C9 = Cytochrome P450 2C9 (Homo sapiens, UniProt P11712); test: Inhibition of CYP2C9 in human liver microsomes using diclofenac as substrate preincubated for 10 mins in presence of NADPH generating system followed by substrate addition and measured after 10 mins by LC-MS/MS analysis; type: ADME
Cytochrome P450 2C9, sequence (P11712 whole entry): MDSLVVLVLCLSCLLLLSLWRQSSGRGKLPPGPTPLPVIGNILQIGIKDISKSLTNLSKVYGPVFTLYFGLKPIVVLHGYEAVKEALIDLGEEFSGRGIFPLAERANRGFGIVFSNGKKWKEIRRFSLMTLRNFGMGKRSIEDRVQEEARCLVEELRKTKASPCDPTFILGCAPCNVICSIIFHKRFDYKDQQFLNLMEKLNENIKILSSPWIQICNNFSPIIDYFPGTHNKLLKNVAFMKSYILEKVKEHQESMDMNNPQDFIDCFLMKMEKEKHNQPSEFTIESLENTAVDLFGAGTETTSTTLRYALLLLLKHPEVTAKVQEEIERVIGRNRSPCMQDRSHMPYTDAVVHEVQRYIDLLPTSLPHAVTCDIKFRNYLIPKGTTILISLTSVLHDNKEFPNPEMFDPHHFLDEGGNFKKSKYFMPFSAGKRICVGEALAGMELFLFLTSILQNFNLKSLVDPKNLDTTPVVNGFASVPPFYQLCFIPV

[9] = Intrinsic clearance in Sprague-Dawley rat liver microsomes preincubated for 10 mins under shaking condition followed by NADPH generating system addition and measured up to 60 mins by LC-MS/MS analysis; type: ADME, Microsome; settings: 1 h, time <=70 min
[10] = (§1) Drug metabolism in CD1 mouse liver microsomes assessed as 3,3-dideuterio-N-[4-methoxy-2-[methyl-[2-(methylamino)ethyl]amino]-5-[[4-[1-(trideuteriomethyl)indol-3-yl]pyrimidin-2-yl]amino]phenyl]prop-2-enamide metabolite formation preincubated for 10 mins under shaking condition followed by NADPH generating system addition and measured up to 60 mins by LC-MS/MS analysis; type: ADME, Microsome; settings: 1 h, time <=70 min
in vivo [11] = settings: Sprague-Dawley, rat, iv, 2 mg/kg
in vivo [12] = settings: Sprague-Dawley, rat, po, 2 mg/kg
[13] = Toxicity in Balb/c nude mouse xenografted with human NCI-H1975 cells harboring EGFR L858R/T790M mutant assessed as change in body weight at 3 to 5 mg/kg, po QD administered via gavage for 24 days and measured twice weekly; type: organism-based; settings: in vivo, 576 h, dose 3-5 mg/kg, time 24 day
[14] = as §1, with “Sprague-Dawley rat” for “CD1 mouse”; type: ADME, Microsome; settings: 1 h, time <=70 min
[15] = Intrinsic clearance in CD1 mouse liver microsomes preincubated for 10 mins under shaking condition followed by NADPH generating system addition and measured up to 60 mins by LC-MS/MS analysis; type: ADME, Microsome; settings: 1 h, time <=70 min
Cytochrome P450 2C8 = target: T1, Cytochrome P450 2C8 (Homo sapiens, UniProt P10632); test: Inhibition of CYP2C8 in human liver microsomes using amodiaquine as substrate preincubated for 10 mins in presence of NADPH generating system followed by substrate addition and measured after 10 mins by LC-MS/MS analysis; type: ADME
T1 sequence (P10632 whole entry): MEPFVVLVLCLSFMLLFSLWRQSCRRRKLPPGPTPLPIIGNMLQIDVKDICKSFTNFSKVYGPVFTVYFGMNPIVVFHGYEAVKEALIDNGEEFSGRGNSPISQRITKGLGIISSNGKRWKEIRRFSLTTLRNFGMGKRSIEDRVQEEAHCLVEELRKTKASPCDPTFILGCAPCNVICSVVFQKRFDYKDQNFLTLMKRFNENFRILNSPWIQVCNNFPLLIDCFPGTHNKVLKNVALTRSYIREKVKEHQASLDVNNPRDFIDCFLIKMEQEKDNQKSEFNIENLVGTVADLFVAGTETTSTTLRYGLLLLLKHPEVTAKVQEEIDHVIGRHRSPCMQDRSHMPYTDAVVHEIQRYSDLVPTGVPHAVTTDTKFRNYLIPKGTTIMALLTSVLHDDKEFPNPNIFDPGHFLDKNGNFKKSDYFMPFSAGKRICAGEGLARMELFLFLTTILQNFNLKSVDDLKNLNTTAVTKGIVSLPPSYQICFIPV

[16] = Cmax in Sprague-Dawley rat at 2 mg/kg, IG administered as single dose and measured upto 24 hrs by LC-MS/MS analysis; type: ADME, organism-based; parameters: route […], dose 2 mg/kg, time <=24; settings: in vivo, po
[17] = Drug metabolism in cynomolgus monkey liver microsomes assessed as 3,3-dideuterio-N-[4-methoxy-2-(methylamino)-5-[[4-[1-(trideuteriomethyl)indol-3-yl]pyrimidin-2-yl]amino]phenyl]prop-2-enamide metabolite formation preincubated for 10 mins under shaking condition followed by NADPH generating system addition and measured up to 60 mins by LC-MS/MS analysis; type: ADME, Macaca fascicularis, Microsome; settings: 1 h, time <=70 min
[18] = Tmax in Sprague-Dawley rat at 12 mg/kg, IG administered as single dose and measured upto 24 hrs by LC-MS/MS analysis; type: ADME, organism-based; settings: in vivo, po
[19] = Cmax in Sprague-Dawley rat at 6 mg/kg/day, IG administered for 7 consecutive days by LC-MS/MS analysis; type: ADME, organism-based; parameters: route […], time 7 day, dose 6 mg/kg/day; settings: in vivo, po
[20] = Drug metabolism in cynomolgus monkey liver microsomes assessed as 3,3-dideuterio-N-[4-methoxy-2-[methyl-[2-(methylamino)ethyl]amino]-5-[[4-[1-(trideuteriomethyl)indol-3-yl]pyrimidin-2-yl]amino]phenyl]prop-2-enamide metabolite formation preincubated for 10 mins under shaking condition followed by NADPH generating system addition and measured up to 60 mins by LC-MS/MS analysis; type: ADME, Macaca fascicularis, Microsome; settings: 1 h, time <=70 min

CS(=O)(=O)O.[2H]C([2H])=CC(=O)Nc1cc(Nc2nccc(-c3cn(C([2H])([2H])[2H])c4ccccc34)n2)c(OC)cc1N(C)CCN(C)C
CLint [1]: 54.2 µL/min/mg
Drug metabolism [2]: Metabolite_Detected
bioavailability [3]: 43%
Tmax [4]: 4.67 h
Cmax [5]: 0.395 nM
half-life at 24 h (in vivo [6]): 4.04 h
CLint [7]: 9.6 µL/min/mg
CL/F at 24 h (in vivo [8]): 248 mL/min/kg
IC50 (Cytochrome P450 2C9): > 50 µM
CLint [9]: 40 µL/min/mg
Drug metabolism [10]: Metabolite_Detected
half-life at 24 h (in vivo [11]): 5.4 h
half-life at 24 h (in vivo [12]): 3.76 h
Activity [13]: Non-Toxic
Drug metabolism [14]: Metabolite_Detected
CLint [15]: 58.6 µL/min/mg
IC50 (Cytochrome P450 2C8): 29.3 µM
Cmax [16]: 46.7 nM
Drug metabolism [17]: Metabolite_Detected
Tmax [18]: 5 h
Cmax [19]: 113 nM
Drug metabolism [20]: Metabolite_Detected
